Source: the supplement of paper PMC10307832

Key:
Assay in all cases: relative viability (nuclei count vs DMSO), 5 days (fraction); higher = more cells survive
[1] = compound: C1COCCN1C2=NC(=NC3=C2OC4=C3C=CC=N4)C5=CC(=CC=C5)NC(=O)C6=CN=C(C=C6)N + C[C@@H](Oc1cc(-c2cnn(C3CCNCC3)c2)cnc1N)c1c(Cl)ccc(F)c1Cl [Crizotinib] (partner 1 µM)
In short: (§1)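 Relative viability was taken as the ratio of nuclei in treated wells to nuclei in vehicle wells. Lung cancer cell lines in 1536-well plates received compounds by pin tool one day after seeding, either one drug alone or a fixed anchor-drug dose plus five library-drug doses (not always all listed) in √10 steps. Nuclei were counted on 4× images after 5 days of treatment, and values are medians of duplicate plates.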

[2] = compound: CN1CCC(CNc2ccc3ncc(-c4cccc(OC(F)(F)F)c4)n3n2)CC1 [SGI-1776] + CC(=O)c1c(C)c2cnc(Nc3ccc(N4CCNCC4)cn3)nc2n(C2CCCC2)c1=O [Palbociclib] (partner 0.5 µM)
In short: as §1

[3] = compound: Nc1ccccc1NC(=O)c1ccc(CNC(=O)OCc2cccnc2)cc1 [Entinostat] + O=C(CCCCCCC(=O)Nc1ccccc1)NO [Vorinostat] (partner 1 µM)
In short: as §1

Cell Line	relative viability ([1]; first compound 0.02 µM)	relative viability ([1]; first compound 0.06325 µM)	relative viability ([1]; first compound 0.2 µM)	relative viability ([1]; first compound 0.6325 µM)	relative viability ([1]; first compound 2 µM)	relative viability ([2]; first compound 0.08 µM)	relative viability ([2]; first compound 0.8 µM)	relative viability ([2]; first compound 2.53 µM)	relative viability ([2]; first compound 8 µM)	relative viability ([3]; first compound 0.02 µM)	relative viability ([3]; first compound 0.06325 µM)	relative viability ([3]; first compound 0.2 µM)	relative viability ([3]; first compound 0.6325 µM)	relative viability ([3]; first compound 2 µM)
NCI-H838	0.901	0.809	0.674	0.722	0.439	0.228	0.222	0.204	0.155	0.784	0.688	0.667	0.458	0.257
HARA	1.01	1.23	1.06	0.978	0.662	0.308	0.289	0.261	0.264	0.541	0.482	0.329	0.324	0.182
NCI-H23	0.56	0.487	0.38	0.511	0.344	0.507	0.574	0.421	0.482	0.601	0.681	0.496	0.271	0.198
LOU-NH91	0.729	0.755	0.76	0.74	0.664	0.647	0.552	0.536	0.537	0.971	0.909	0.872	0.718	0.56
LCLC-103H	1.03	1.15	1.09	0.957	0.974	0.524	0.456	0.475	0.401	0.804	0.806	0.703	0.482	0.447
SW 1573	0.89	0.812	0.721	0.743	0.659	0.441	0.351	0.363	0.245	0.698	0.891	0.88	0.422	0.43
EKVX	1.06	0.985	1.03	1.03	0.62	0.436	0.431	0.37	0.318	0.801	0.654	0.65	0.467	0.42
IA-LM	1.05	0.733	0.619	0.58	0.369	–	–	–	–	0.972	0.997	1.13	0.863	0.682
HCC-827	0.905	0.97	0.91	0.985	0.93	0.504	0.513	0.509	0.383	0.988	0.879	0.631	0.62	0.287
NCI-H661	1.16	1.27	0.971	1.12	0.932	0.415	0.399	0.412	0.338	0.718	0.774	0.707	0.58	0.468
CAL-12T	0.843	0.634	0.688	0.559	0.507	0.425	0.518	0.641	0.418	0.606	0.892	0.734	0.52	0.423
NCI-H2342	–	–	–	–	–	0.609	0.539	0.55	0.535	0.855	0.859	0.709	0.772	0.691
SW 900	–	–	–	–	–	0.599	0.633	0.571	0.395	0.634	0.485	0.476	0.376	0.264
LC-2-ad	0.486	0.494	0.411	0.5	0.387	0.495	0.535	0.457	0.467	0.666	0.686	0.695	0.356	0.257
EPLC-272H	0.977	1.03	1.01	1.04	0.722	0.32	0.336	0.354	0.226	0.483	0.397	0.33	0.236	0.139
A-427	0.895	0.881	0.738	0.809	0.406	0.567	0.541	0.547	0.456	0.87	0.875	0.864	0.781	0.617
NCI-H650	0.654	0.713	0.798	0.755	0.559	0.39	0.349	0.312	0.33	0.45	0.469	0.35	0.367	0.181
NCI-H1993	0.821	0.856	0.805	0.899	0.789	0.466	0.662	0.526	0.504	0.841	0.661	0.73	0.453	0.351
NCI-H358	0.64	0.586	0.455	0.559	0.38	0.112	0.141	0.129	0.113	0.67	0.618	0.947	0.211	0.117
RERF-LC-KJ	1.02	0.913	0.798	0.794	0.748	1.01	1.06	1.07	0.748	0.68	0.665	0.578	0.381	0.25
NCI-H1915	0.887	1	0.983	0.907	0.494	0.534	0.541	0.554	0.509	0.488	0.499	0.481	0.356	0.152
NCI-H647	1.16	1.17	0.943	1.09	0.283	0.506	0.367	0.319	0.258	0.513	0.577	0.345	0.209	0.0916
SK-LU-1	0.947	0.992	0.915	1.1	0.502	0.425	0.306	0.415	0.371	0.775	0.801	0.747	0.579	0.582
NCI-H441	0.71	0.679	0.688	0.923	0.415	0.204	0.219	0.235	0.164	0.695	0.61	0.465	0.261	0.161
